US10299714B2, “Blood collection devices containing blood stabilization agent including variegin or analog thereof and/or a polysulfated disaccharide” (Becton, Dickinson and Company, priority 2010, dated 2019)

How the values were obtained:
whole blood sample [1] = assay: Visual inspection of stored whole blood sample for clotted, insoluble material; design: species or system human
Method: (§1) Relative stability of platelets was examined with respect to a range of concentrations of variegin (SEQ ID NO:1). Experiments were performed as described above, using either collagen or adenosine diphosphate (ADP) as agonists, all per manufacturer's recommended protocols. Table 2 lists a qualitative assessment of stability, namely how long after initially drawing the blood was platelet aggregation measureable above the effective instrument baseline, the time to first visual observation of clotted, insoluble material in the whole blood sample, and an assessment of the severity or extent of the presence of this insoluble material was also recorded.
These peptides were used as the blood stabilization agent, and were spiked into blood immediately after collection into an empty, evacuated blood collection tube, achieving a final concentration of 150 μM. The blood was allowed to dwell in a whole-blood state at room temperature, until assayed for platelet aggregation potential, all as described in Example 1. Agonists used included collagen and ADP, following manufacturer's instructions. Table 4 lists a qualitative assessment of stability, namely how long after initially drawing the sample was platelet aggregation measureable above the effective instrument baseline. Additionally, the time to first visual observation of clotted, insoluble material in the whole blood sample, and an assessment of the severity or extent of the presence of this insoluble material was also recorded. In some cases, only visual characterization of the amount of insoluble material was reported, without having performed any platelet aggregation measurements.
(§2) The results are shown in Table 5 which lists additives alone or in combination that were spiked into freshly drawn whole blood samples. […] For some of the conditions tested, only a subset of these three parameters was recorded.

whole blood sample [2] = assay: Visual inspection of stored whole blood sample for hemolysis; type: cell-based, human
From the text: Skilled practitioners will appreciate the hemolyzed samples are an obvious visual clue that damage to blood cells has occurred, either during the collection, transport, or storage of blood samples. Although hemolysis is not necessarily detrimental to any one clinical assay, it is a well known interference for some tests, and thus it is preferable to avoid causing hemolysis. Hemolysis can be measured by visual scale (e.g., mild or slightly pink, moderate or noticeably red, or severe or dark red). Hemolysis can also be measured by spectroscopic measurement of the red color of the hemoglobin itself, and can be reported by the concentration of hemoglobin released into the serum or plasma (e.g., such that less than about 20 mg/dL concentration of released hemoglobin, or to an extent that the hemoglobin concentration cannot be measured visually or by spectroscopy represents “minor or negligible” hemolysis, about 20 to about 100 mg/dL represents “mild” hemolysis, about 100 to about 300 represents “moderate” hemolysis, or greater than about 300 mg/dL represents “severe” hemolysis).
as §2

platelets = assay: Whole blood impedance aggregometry (Multiplate): platelet aggregation after room temperature storage of drawn blood; type: cell-based, human; settings: for Time after blood draw where aggregation was still measurable above baseline: Table 5, collagen and/or ADP
From the text: The blood was allowed to stand at room temperature, in undisturbed aliquots, until tested at the times indicated. Samples were inverted several times immediately prior to testing, to re-suspend blood cells that naturally settle over time.
Measurements: Testing of platelet function (which in this experiment, was aggregation activity) was done using the Multiplate instrument (Verum Diagnostics, Munich, Germany), which uses whole blood as the sample and an increase in impedance as the measurement of platelet aggregation. The instrument was used per manufacturer's instructions. Briefly, 300 microliters of isotonic saline was warmed in each reaction cuvette, and to this was added 300 microliters of the whole blood sample. In reactions where aspirin or other platelet antagonists (inhibitors) were added in vitro, 20 microliters (μL) of a stock solution of aspirin was spiked into the samples. The aggregation reaction was initiated by addition of a platelet agonist, in this case collagen, at 3.2 μg/ml and volume (20 μl) per manufacturer's instructions. Upon addition of the collagen, the impedance measurements began automatically, and were continued for 6 minutes, representing the full course along the x-axis in the graphs shown in FIG. 2. The graphs show platelet aggregation, as reported by impedance, as an arbitrary unitless measurement on the y-axis, over the 6-minute run time on the x-axis. Traces shown are raw platelet aggregation data delivered from the instrument. […] Representative data are shown for blood that dwells at room temperature after the initial draw for 1 hr, 24 hr, 48 hr, and 72 hr. Data are shown for the blood itself, as well for blood pre-treated with aspirin to inhibit platelet function immediately prior to testing.
The experiments were performed as described in Example 1. In this case, the data are plotted as a function of time that the blood sample dwells outside of the body (x-axis) versus platelet function as shown as the area under the curve (AUC) as one representation of the platelet aggregation signal. AUC is the integrated signal from the raw data traces shown in Example 1, and also is reported as a unitless measurement. The effective background level of the instrument is drawn as a dashed line across the bottom of the graph. Any AUC measurement of aggregation at or below this level was considered so weak as to be unreportable, essentially representing a “null” data level.
as §1
These peptides were used as the blood stabilization agent, and were spiked into blood immediately after collection into an empty, evacuated blood collection tube, achieving a final concentration of 150 μM. The blood was allowed to dwell in a whole-blood state at room temperature, until assayed for platelet aggregation potential, all as described in Example 1. Agonists used included collagen and ADP, following manufacturer's instructions.

thrombin = thrombin (Homo sapiens, UniProt P00734); settings: reported in Koh; cited from earlier work
[3] = relatively high concentration, used alone

Compound	onset of clotting (whole blood sample [1]; [3])	Visual inspection for hemolysis (whole blood sample [2]; Table 5, additive alone at 100 μM)	hemolysis (whole blood sample [2]; [3])	Time after blood draw where aggregation was still measurable above baseline (platelets; additive alone at 50 μM) [h]	Time after blood draw where aggregation was still measurable above baseline (platelets; additive alone at 75 μM) [h]	Time after blood draw where aggregation was still measurable above baseline (platelets; additive alone at 100 μM) [h]	time for stability of the sample for platelet aggregation measurements (platelets; [3])	time after blood draw to solid clotting of the sample (whole blood sample [1]; peptide 150 μM, room temperature)	thrombin inhibition for therapeutic purposes (thrombin)
C[C@@H]1CCN(C(=O)[C@H](CCCN=C(N)N)NS(=O)(=O)c2cccc3c2NC[C@H](C)C3)[C@@H](C(=O)O)C1 [Argatroban, (2R,4R)-1-[(2S)-5-(diaminomethylideneamino)-2-[[(3R)-3-methyl-1,2,3,4-tetrahydroquinolin-8-yl]-sulfonylamino]pentanoyl]-4-methyl-piperidine-2-carboxylic acid, reference compound]	faster onset of clotting	Extensive	extensive amounts of hemolysis	30	24	24	less time for stability of the sample for platelet aggregation measurements		
MHKTAPPFDFEAIPEEYLDDES (Synthetic Peptide Variegin Fragment) [Ct22]								clots solidly within one hour	effective thrombin inhibitor
